The values below come from patent US11130974B2, “Hydroxylated fatty acid homopolymer and production method thereof” (KYOTO UNIVERSITY, priority 2017, dated 2021).

This data set addresses T1, hydroxylated fatty acid dehydrogenase (CLA-DH) (Lactiplantibacillus plantarum, UniProt P0DX40).
T1 construct: made in house; host or cells: Escherichia coli (cell-free extract, not purified)
T1 sequence (P0DX40 1-286): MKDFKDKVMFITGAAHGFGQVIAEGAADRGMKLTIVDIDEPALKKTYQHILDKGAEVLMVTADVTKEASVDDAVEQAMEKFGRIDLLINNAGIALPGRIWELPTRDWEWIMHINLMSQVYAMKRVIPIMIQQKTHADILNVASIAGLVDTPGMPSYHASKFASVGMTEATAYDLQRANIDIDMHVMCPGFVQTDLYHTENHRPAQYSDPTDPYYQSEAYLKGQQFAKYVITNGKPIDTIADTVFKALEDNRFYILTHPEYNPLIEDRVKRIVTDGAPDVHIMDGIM
Kind of data set: Comparison of oxidation stability: oxidation reaction with NAD+ in the presence of hydroxylated fatty acid dehydrogenase (CLA-DH), NADH measured at 340 nm. Type of data set: biochemical. The conditions noted are these: 0.143 mg/mL substrate (0.48 mM HYA), 4 mM NAD+, CLA-DH-expressing Escherichia coli cell-free extract, 37° C., about 6 min. As for the experimental part: The oxidation stability was compared between the reaction extract (homopolymer mixture) obtained in Example 1 and HYA. The oxidation reaction was performed using NAD^+ as an electron receptor in the presence of hydroxylated fatty acid dehydrogenase (CLA-DH) (S. Kishino et al., Polyunsaturated fatty acid saturation by gut lactic acid bacteria affecting host lipid composition. Proc. Natl. Acad. Sci. USA, 110(44), 17808-17813, 2013).
The reaction mixture (3 mL) contained CLA-DH-expressing Escherichia coli cell-free extract (150 μL, derived from 50 mg Escherichia coli wet cells) as hydroxylated fatty acid dehydrogenase, 4 mM NAD^+, 150 μL of ethanol, and 0.48 mM (0.143 mg/mL) HYA or equal amount (0.143 mg/mL) of a homopolymer mixture as a substrate, and the reaction was started by the addition of hydroxylated fatty acid dehydrogenase and performed at 37° C. for about 6 min. […] The progress of oxidation was quantified by measuring the change in absorbance at 340 nm of NADH amount produced by the oxidation of the substrate (the molecular absorption coefficient of NADH was 6.3×10^3 L·mol^−1 cm^−1).

Turning to `CCCCC/C=C\CC(O)CCCCCCCCC(=O)O` (stereo not drawn) [HYA, 10-hydroxy-cis-12-octadecenoic acid], the oxidation rate was 2.9 µM/min.
